Measurements from PubChem BioAssay AID1996.
Converted amounts (≈) assume the structure as drawn.

Conditions: buffer; pH 7.4; 200.0 µM
In the case of COc1cccc(NC(=O)CCN2C(=O)c3cccc([N+](=O)[O-])c3C2=O)c1, the solubility kinetic is reported as over 55.4 µg/mL.
With COc1cc(Br)c(CC(=O)NC2CC2)cc1OC the solubility kinetic was over 47.1 µg/mL.
Compound CC(=O)Nc1c(C(N)=O)oc2ccc(Cl)cc12 has a solubility kinetic of over 37.9 µg/mL.
For COC(=O)C1=C(C)N(C)C(=O)NC1c1c(O)ccc2ccccc12 (stereo unspecified), the solubility kinetic was over 49 µg/mL.
CC(=O)c1c(C)[nH]c(C(=O)OCc2cc(-c3ccco3)on2)c1C gave a solubility kinetic of 2.5 µg/mL (≈ 7.61 µM).
With COc1cccc(N=Cc2nc(-c3ccccc3)oc2OC(C)=O)c1 the solubility kinetic was 10.1 µg/mL (≈ 30 µM).
Work on CCc1cccc(OCC2Cn3c(nc4c3c(=O)n(C)c(=O)n4C)O2)c1 (stereo unspecified) yielded a solubility kinetic of 28.2 µg/mL (≈ 79.1 µM).
CCOC(=O)CCNC(=O)CCNC(=O)C(c1ccccc1)c1ccccc1 showed a solubility kinetic of over 57.4 µg/mL.
For CC(Cc1cccs1)NCc1ccc(Cl)cc1 (stereo unspecified), the solubility kinetic was 22.6 µg/mL (≈ 85 µM).
O=C(NC1CCCCCC1)c1ccc(Br)o1 gave a solubility kinetic of 27.7 µg/mL (≈ 96.8 µM).
With Cc1nnc(NC(=O)C2CCCC2)s1 the solubility kinetic was over 31.7 µg/mL.
For O=C(O)CC(CC(=O)N1CCN(C(=O)c2ccco2)CC1)c1ccccc1 (stereo unspecified), the solubility kinetic was over 55.6 µg/mL.
COC(=O)c1sccc1NC(=O)c1cccc(F)c1 gave a solubility kinetic of under 0.6 µg/mL.
In the case of Cc1ccc2nc(Nc3ncc4c(n3)CC(C)(C)CC4=O)nc(C)c2c1, the solubility kinetic is reported as 10.5 µg/mL (≈ 30.2 µM).
O=C(COC(=O)c1ccc([N+](=O)[O-])o1)Nc1ccc(N2CCOCC2)cc1 showed a solubility kinetic of 50.6 µg/mL (≈ 135 µM).
Work on O=C(O)CC1(CC(=O)Nc2ccc(F)cc2F)CCCCC1 yielded a solubility kinetic of over 46.7 µg/mL.
For Cc1cc(C)n2nc(C(=O)OCC(=O)N(CC(C)C)C3CCS(=O)(=O)C3)nc2n1 (stereo unspecified), the solubility kinetic was over 63.5 µg/mL.
Work on COc1ccccc1N1C(=S)NC2CS(=O)(=O)CC21 (stereo unspecified) yielded a solubility kinetic of over 44.8 µg/mL.
Work on CCOc1ccccc1CNS(=O)(=O)c1cnc[nH]1 yielded a solubility kinetic of over 42.2 µg/mL.
For Cc1cc(C(=O)Nc2ccon2)c(C)o1, the solubility kinetic was over 30.9 µg/mL.
O=C(CCN1C(=O)c2cccc([N+](=O)[O-])c2C1=O)NC1CCCCCC1 showed a solubility kinetic of over 53.9 µg/mL.
Work on O=C(Nc1cccnc1)c1ccccc1Cl yielded a solubility kinetic of over 34.9 µg/mL.
CCCOc1ccc(C(CC(=O)O)NC(=O)Cc2ccccc2)cc1 (stereo unspecified) showed a solubility kinetic of over 51.2 µg/mL.
In the case of Cc1ccccc1N1C(=O)c2cccc3cccc(c23)C1=O, the solubility kinetic is reported as 2.5 µg/mL (≈ 8.7 µM).
In the case of CCO/C([O-])=N/c1c[n+](N2CCOCC2)no1, the solubility kinetic is reported as over 36.3 µg/mL.
In the case of Cc1nn(C)c(Cl)c1CN1CCN(CCC(C)C)C(CCO)C1 (stereo unspecified), the solubility kinetic is reported as over 51.4 µg/mL.
Compound COc1ccc(C(C)C)cc1S(=O)(=O)NC1CCCC1 has a solubility kinetic of 3 µg/mL (≈ 10.1 µM).
CCCC1(CCC)NC(=O)N(CC(=O)Nc2ccc(Cl)c(S(=O)(=O)N3CCOCC3)c2)C1=O gave a solubility kinetic of 73.2 µg/mL (≈ 146 µM).
Compound Cc1ccc2nc(C)c(C(=O)O)cc2c1 has a solubility kinetic of over 30.2 µg/mL.
With COC(=O)CC1C(=O)NCCN1C(=O)c1ccc(Cl)cc1 (stereo unspecified) the solubility kinetic was over 46.6 µg/mL.
Work on Cc1ccccc1C(=O)c1cccn1CC(=O)N1CCCCC1 yielded a solubility kinetic of over 46.6 µg/mL.
O=C(CCl)Nc1ncc(S(=O)(=O)c2ccc([N+](=O)[O-])cc2)s1 gave a solubility kinetic of over 54.3 µg/mL.
Work on O=C(CCc1ccc(S(=O)(=O)N2CCOCC2)cc1)Nc1ccc(F)cc1[N+](=O)[O-] yielded a solubility kinetic of 14 µg/mL (≈ 32 µM).
Compound C[C@H](NC(=O)c1ccco1)C(=O)N1CCN(c2ccc(C(F)(F)F)cn2)CC1 has a solubility kinetic of over 59.5 µg/mL.
Compound N/C(COc1ccc(Cl)cc1Cl)=N\O has a solubility kinetic of 28.8 µg/mL (≈ 123 µM).
Work on COc1cc2[nH]c(=S)nc(NCc3cccnc3)c2cc1OC yielded a solubility kinetic of 12.2 µg/mL (≈ 37.2 µM).
Compound CCC1Oc2ccccc2N(CC(=O)N2CCOCC2)C1=O (stereo unspecified) has a solubility kinetic of over 45.7 µg/mL.
Cn1ccsc1=NC(=O)c1ccc(S(=O)(=O)C(F)F)cc1 gave a solubility kinetic of 2.5 µg/mL (≈ 7.52 µM).
CCS(=O)(=O)c1c(S(=O)(=O)CC)c2ccccn2c1C(N)=O gave a solubility kinetic of over 51.7 µg/mL.
For Cc1cc2oc(=O)cc(CN3CCCCC3C)c2cc1C(C)C (stereo unspecified), the solubility kinetic was 8.1 µg/mL (≈ 25.8 µM).
COc1ccc(Cl)cc1S(=O)(=O)n1ccnc1 gave a solubility kinetic of over 40.9 µg/mL.
With O=C(COC(=O)C1CC2C=CC1C2)Nc1ccccc1F (stereo unspecified) the solubility kinetic was over 43.4 µg/mL.
Work on Cc1ccnc(NC(=O)Cn2c(=O)oc3ccccc32)c1 yielded a solubility kinetic of 10.9 µg/mL (≈ 38.5 µM).
CN1CCN(c2ccc(CNS(=O)(=O)Cc3ccc(Cl)cc3)cc2)CC1 gave a solubility kinetic of 2.8 µg/mL (≈ 7.11 µM).
In the case of O=S(=O)(NC1CC1)c1ccc(Cl)cc1, the solubility kinetic is reported as over 34.8 µg/mL.
With Oc1c(C(c2ccccn2)N2CCOCC2)ccc2cccnc12 (stereo unspecified) the solubility kinetic was 1.7 µg/mL (≈ 5.29 µM).
In the case of NC(C(=O)O)C(c1ccccc1)C(F)F (stereo unspecified), the solubility kinetic is reported as 30 µg/mL (≈ 139 µM).
COc1cccc(C(=O)NCCCNC(=O)c2cccc(OC)c2)c1 showed a solubility kinetic of over 51.4 µg/mL.
For Cc1noc(C)c1C(=O)N1CCC(C(=O)c2ccc(F)cc2F)CC1, the solubility kinetic was over 52.3 µg/mL.
Work on O=C(NC(=S)Nc1ccccc1N1CCCC1)c1cccs1 yielded a solubility kinetic of 3.2 µg/mL (≈ 9.65 µM).
CN(C)CC(c1ccccc1)c1ccccc1.Cl showed a solubility kinetic of 34.3 µg/mL.
In the case of Cl.Clc1ccc(CNCC2CCCO2)c(Cl)c1 (stereo unspecified), the solubility kinetic is reported as 37 µg/mL.
Cc1cccc(NC(=O)C(=O)NCc2ccc3c(c2)OCO3)c1C gave a solubility kinetic of 2 µg/mL (≈ 6.13 µM).
Cc1cccc(NC(=O)COC(=O)c2cccs2)c1C gave a solubility kinetic of 1.8 µg/mL (≈ 6.22 µM).
Work on O=C(N/C(=C\c1ccco1)C(=O)N1CCCC1)c1ccccc1 yielded a solubility kinetic of 41.6 µg/mL (≈ 134 µM).
CN(C)C(=O)CSc1nc2ccc(N3C(=O)c4ccccc4C3=O)cc2s1 showed a solubility kinetic of 3.1 µg/mL (≈ 7.8 µM).
With COCCSc1nc(N)c2c3c(sc2n1)CN(C)CC3 the solubility kinetic was over 46.6 µg/mL.
For Cc1cc(NC(=O)C(Cl)c2ccccc2)no1 (stereo unspecified), the solubility kinetic was over 37.6 µg/mL.
With COc1ccc(NC(=O)Nc2c(C)noc2-c2ccccc2)cc1 the solubility kinetic was 7.5 µg/mL (≈ 23.2 µM).
Work on O=C(COC(=O)COc1ccccc1)NCCC1=CCCCC1 yielded a solubility kinetic of 38.5 µg/mL (≈ 121 µM).
For O=C1/C(=C/c2cccnc2)N2CCC1CC2, the solubility kinetic was over 32.1 µg/mL.
In the case of S=C(NCc1ccccc1)Nc1cccc2cnccc12, the solubility kinetic is reported as over 44 µg/mL.
Work on Cl.Clc1cccc(Cl)c1CSc1nnc([C@@H]2CCCN2)o1 yielded a solubility kinetic of over 55 µg/mL.
With O=C(NCCN1CCCCC1)Nc1ccc(F)cc1F the solubility kinetic was over 42.5 µg/mL.
NC(=O)Nc1ccc(C(=O)OCC(=O)Nc2ccc(Cl)cn2)cc1 gave a solubility kinetic of 5.1 µg/mL (≈ 14.6 µM).
For Cc1ccc(O)c(NC(=O)c2cc(-c3ccc(F)cc3)on2)c1, the solubility kinetic was under 0.3 µg/mL.
With COc1cccc(NC(=O)NCCCCc2ccccc2)c1 the solubility kinetic was 12.9 µg/mL (≈ 43.2 µM).
In the case of CCc1ccc(OCC(=O)Nc2ccncc2)cc1, the solubility kinetic is reported as over 38.4 µg/mL.
With O=C(COC(=O)c1cccs1)Nc1ccc(Cl)cn1 the solubility kinetic was 3.1 µg/mL (≈ 10.4 µM).
With O=C(Nc1ccccc1C(F)(F)F)c1ccccn1 the solubility kinetic was 6.7 µg/mL (≈ 25.2 µM).
CCCCCC(=O)NC(CC(=O)OC)c1ccc2c(c1)OCO2 (stereo unspecified) gave a solubility kinetic of over 48.2 µg/mL.
In the case of CC(C)CC(NC(=O)OC(C)(C)C)C(=O)O.O (stereo unspecified), the solubility kinetic is reported as over 37.4 µg/mL.
Work on Cc1nc(C)n(CC(=O)c2ccc(Cl)cc2Cl)n1 yielded a solubility kinetic of over 42.6 µg/mL.
CC(C)(C)NC(=O)COC(=O)c1ccc(Cl)nc1 gave a solubility kinetic of 36.4 µg/mL (≈ 134 µM).
S=C1NCN(Cc2ccccc2)CN1C1CCCCC1 showed a solubility kinetic of 4.5 µg/mL (≈ 15.5 µM).
Work on O=[N+]([O-])c1ccc2c(c1)C(c1ccccc1)=NCCN2 yielded a solubility kinetic of 16.8 µg/mL (≈ 62.9 µM).
Work on COc1cccc(/C=C/c2nc(C#N)c(NCC(C)C)o2)c1 yielded a solubility kinetic of 0.4 µg/mL (≈ 1.35 µM).
Cc1ccc(Sc2ncccc2O)cc1 gave a solubility kinetic of 17.4 µg/mL (≈ 80.1 µM).
COc1ccc(CNC(=O)C(C)N(C)Cc2cccc(F)c2)cc1 (stereo unspecified) showed a solubility kinetic of 26.1 µg/mL (≈ 79 µM).
O=C(Nc1ccc(F)cc1)NC1CCN(Cc2c(F)cccc2Cl)CC1 gave a solubility kinetic of 2.8 µg/mL (≈ 7.37 µM).
With Cc1ccc2nsnc2c1NC(=O)Cc1ccc(Cl)cc1 the solubility kinetic was 0.7 µg/mL (≈ 2.2 µM).
For CCc1ccccc1N(C(C)=O)c1nc(CCl)cs1, the solubility kinetic was over 44.2 µg/mL.
CCC1Oc2ccccc2N(CC(=O)NC2CC2)C1=O (stereo unspecified) gave a solubility kinetic of over 41.1 µg/mL.
With CC1CN(C(=O)C2CC(=O)N(c3ccc(Cl)cc3)C2)CC(C)O1 (stereo unspecified) the solubility kinetic was over 50.5 µg/mL.
CCOC(=O)C1CCCN(c2c(NCCc3ccccc3)c(=O)c2=O)C1 (stereo unspecified) showed a solubility kinetic of 25.5 µg/mL (≈ 71.5 µM).
For CC(C)C(OC(=O)c1ccc(Cl)nc1)C(=O)NC1CCCCC1 (stereo unspecified), the solubility kinetic was 29.7 µg/mL (≈ 87.7 µM).
